# Laboratory results reported in PubChem BioAssay (NCI).
#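 How tested: cells in 96-well plates exposed to compound for 48 hours at five concentrations. At the TGI there is no net growth.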
# What was measured:
# Experiment in all cases: NCI-60 cell line screen, 48 h
# [1] = system: RPMI-8226 leukemia
# [2] = system: K-562 leukemia
# [3] = system: ACHN renal
# [4] = system: EKVX NSCLC
# [5] = system: SK-OV-3 ovarian
# [6] = system: CAKI-1 renal
# [7] = system: HL-60(TB) leukemia
# [8] = system: LXFL 529 NSCLC
# [9] = system: LOX IMVI melanoma
# [10] = system: DMS 273 small cell lung
# [11] = system: HCT-15 colon
# [12] = system: SNB-75 CNS
# [13] = system: NCI-H522 lung
# [14] = system: OVCAR-4 ovarian
# [15] = system: HOP-62 NSCLC
# [16] = system: HOP-92 NSCLC
# [17] = system: SW-620 colon
# [18] = system: MOLT-4 leukemia
# [19] = system: MALME-3M melanoma
# [20] = system: CCRF-CEM leukemia
# [21] = system: SK-MEL-2 melanoma
# [22] = system: SN12C renal
# [23] = system: XF 498 CNS
# [24] = system: COLO 205 colon
# [25] = system: HCC-2998 colon
# [26] = system: M14 melanoma
# [27] = system: HCT-116 colon
# [28] = system: OVCAR-3 ovarian
# [29] = system: SR leukemia
# [30] = system: M19-MEL melanoma
# [31] = system: SF-268 CNS
# [32] = system: KM12 colon
# [33] = system: IGROV1 ovarian
# [34] = system: NCI-H226 lung
# [35] = system: HOP-18 NSCLC
# [36] = system: OVCAR-8 ovarian
# [37] = system: NCI-H460 lung
# [38] = system: 786-0 renal
# [39] = system: OVCAR-5 ovarian
# [40] = system: U251 CNS
# [41] = system: TK-10 renal
# [42] = system: UO-31 renal
# [43] = system: SNB-78 CNS
# [44] = system: KM20L2 colon
# [45] = system: SF-295 CNS
# [46] = system: NCI-H23 lung
# [47] = system: RXF 393 renal
# [48] = system: DMS 114 small cell lung
# [49] = system: SK-MEL-28 melanoma
# [50] = system: SF-539 CNS
# [51] = system: UACC-257 melanoma
# [52] = system: SNB-19 CNS
# [53] = system: HT29 colon
# [54] = system: SK-MEL-5 melanoma
# [55] = system: A549 NSCLC
# [56] = system: DLD-1 colon
# [57] = system: UACC-62 melanoma
# [58] = system: A498 renal
smiles,measurement,setting,value
O=c1n(CCCCn2c(=O)n(CC3CS3)c3ccccc32)c2ccccc2n1CC1CS1 (stereo not given),TGI,[1],30.3 µM
same,TGI,[2],37.5 µM
same,TGI,[3],77.6 µM
same,TGI,[4],76.2 µM
same,TGI,[5],> 100 µM
same,TGI,[6],35.5 µM
same,TGI,[7],6.34 µM
same,TGI,[8],33.1 µM
same,TGI,[9],14.4 µM
same,TGI,[10],42.7 µM
same,TGI,[11],33.2 µM
same,TGI,[12],61.4 µM
same,TGI,[13],31.6 µM
same,TGI,[14],34 µM
same,TGI,[15],43.9 µM
same,TGI,[16],86.5 µM
same,TGI,[17],39.8 µM
same,TGI,[18],5.82 µM
same,TGI,[19],22.8 µM
same,TGI,[20],81.4 µM
same,TGI,[21],29 µM
same,TGI,[22],36.5 µM
same,TGI,[23],20.6 µM
same,TGI,[24],35.6 µM
same,TGI,[25],35.9 µM
same,TGI,[26],23.2 µM
same,TGI,[27],39.7 µM
same,TGI,[28],29.4 µM
same,TGI,[29],21.5 µM
same,TGI,[30],45.8 µM
same,TGI,[31],> 100 µM
same,TGI,[32],24.2 µM
same,TGI,[33],32 µM
FC(F)(F)C1(C(F)(F)F)O[SiH]2(OC(C(F)(F)F)(C(F)(F)F)c3ccccc32)c2ccccc21,TGI,[1],97.4 µM
same,TGI,[2],31.6 µM
same,TGI,[3],78.8 µM
same,TGI,[34],20.3 µM
same,TGI,[35],75.1 µM
same,TGI,[36],83.9 µM
same,TGI,[4],39.4 µM
same,TGI,[6],87.1 µM
same,TGI,[8],38.5 µM
same,TGI,[37],25.5 µM
same,TGI,[10],53.2 µM
same,TGI,[38],31.7 µM
same,TGI,[11],25.9 µM
same,TGI,[39],28.4 µM
same,TGI,[40],19.6 µM
same,TGI,[41],45.5 µM
same,TGI,[13],42 µM
same,TGI,[14],23.4 µM
same,TGI,[42],30.7 µM
same,TGI,[17],45.4 µM
same,TGI,[43],52.8 µM
same,TGI,[18],30.5 µM
same,TGI,[44],18.4 µM
same,TGI,[19],42 µM
same,TGI,[45],20.3 µM
same,TGI,[46],24.5 µM
same,TGI,[47],31.2 µM
same,TGI,[48],29.1 µM
same,TGI,[49],72.6 µM
same,TGI,[50],25.4 µM
same,TGI,[21],49.3 µM
same,TGI,[22],63.1 µM
same,TGI,[51],54.6 µM
same,TGI,[24],45.2 µM
same,TGI,[52],> 100 µM
same,TGI,[25],37.4 µM
same,TGI,[26],29.4 µM
same,TGI,[28],40.6 µM
same,TGI,[53],23.2 µM
same,TGI,[29],37.8 µM
same,TGI,[30],39.4 µM
same,TGI,[32],62.5 µM
O=C1c2c(nc3ccccc3c2-c2ccccc2)CN1Nc1ccccc1,TGI,[54],> 100 µM
same,TGI,[1],> 100 µM
same,TGI,[2],> 100 µM
same,TGI,[34],> 100 µM
same,TGI,[36],> 100 µM
same,TGI,[4],> 100 µM
same,TGI,[5],> 100 µM
same,TGI,[6],> 100 µM
same,TGI,[7],> 100 µM
same,TGI,[8],> 100 µM
same,TGI,[9],> 100 µM
same,TGI,[38],> 100 µM
same,TGI,[39],> 100 µM
same,TGI,[41],> 100 µM
same,TGI,[13],> 100 µM
same,TGI,[14],> 100 µM
same,TGI,[15],> 100 µM
same,TGI,[16],> 100 µM
same,TGI,[42],> 100 µM
same,TGI,[17],> 100 µM
same,TGI,[18],> 100 µM
same,TGI,[44],> 100 µM
same,TGI,[19],> 100 µM
same,TGI,[20],> 100 µM
same,TGI,[48],> 100 µM
same,TGI,[55],> 100 µM
same,TGI,[21],> 100 µM
same,TGI,[22],> 100 µM
same,TGI,[51],> 100 µM
same,TGI,[23],> 100 µM
same,TGI,[24],> 100 µM
same,TGI,[25],> 100 µM
same,TGI,[26],> 100 µM
same,TGI,[27],> 100 µM
same,TGI,[56],> 100 µM
same,TGI,[28],> 100 µM
same,TGI,[53],> 100 µM
same,TGI,[29],> 100 µM
same,TGI,[30],> 100 µM
same,TGI,[31],> 100 µM
same,TGI,[57],> 100 µM
same,TGI,[32],> 100 µM
same,TGI,[33],> 100 µM
O=C(N/C(=C\c1ccc(Oc2ccc(Cl)c(Cl)c2)cc1)c1nc2ccccc2[nH]1)c1ccccc1,TGI,[54],30.4 µM
same,TGI,[2],59.6 µM
same,TGI,[3],50.9 µM
same,TGI,[36],28.6 µM
same,TGI,[4],50.5 µM
same,TGI,[5],79.2 µM
same,TGI,[6],47.9 µM
same,TGI,[8],32.3 µM
same,TGI,[10],53.9 µM
same,TGI,[38],33 µM
same,TGI,[11],66.6 µM
same,TGI,[39],67.9 µM
same,TGI,[40],27.4 µM
same,TGI,[41],57.7 µM
same,TGI,[13],35.5 µM
same,TGI,[14],54.2 µM
same,TGI,[16],23.5 µM
same,TGI,[42],27.6 µM
same,TGI,[17],33.7 µM
same,TGI,[43],54.8 µM
same,TGI,[18],93.4 µM
same,TGI,[44],37.2 µM
same,TGI,[19],43.8 µM
same,TGI,[45],29 µM
same,TGI,[46],27.7 µM
same,TGI,[20],88.5 µM
same,TGI,[47],28.1 µM
same,TGI,[55],54.4 µM
same,TGI,[49],35.1 µM
same,TGI,[50],32.7 µM
same,TGI,[21],37.7 µM
same,TGI,[22],35.5 µM
same,TGI,[23],34.6 µM
same,TGI,[24],58 µM
same,TGI,[52],36.3 µM
same,TGI,[25],31.7 µM
same,TGI,[26],34.8 µM
same,TGI,[56],42.9 µM
same,TGI,[28],41 µM
same,TGI,[53],32.6 µM
same,TGI,[29],85 µM
same,TGI,[30],94 µM
same,TGI,[31],37.1 µM
same,TGI,[57],33.5 µM
same,TGI,[32],30.4 µM
Clc1ccc(SCCCCCCCCCCSc2ccc(Cl)cc2)cc1,TGI,[54],> 69.3 µM
same,TGI,[1],> 100 µM
same,TGI,[2],> 100 µM
same,TGI,[3],> 73.5 µM
same,TGI,[34],> 100 µM
same,TGI,[35],> 100 µM
same,TGI,[36],> 80.1 µM
same,TGI,[4],> 96.6 µM
same,TGI,[5],> 100 µM
same,TGI,[6],> 100 µM
same,TGI,[7],> 100 µM
same,TGI,[8],> 100 µM
same,TGI,[9],> 100 µM
same,TGI,[37],> 78.7 µM
same,TGI,[10],> 100 µM
same,TGI,[38],> 70.4 µM
same,TGI,[11],> 75.9 µM
same,TGI,[39],> 78.3 µM
same,TGI,[40],> 69.8 µM
same,TGI,[12],> 100 µM
same,TGI,[41],> 77.9 µM
same,TGI,[13],> 100 µM
same,TGI,[14],> 100 µM
same,TGI,[15],> 100 µM
same,TGI,[16],> 100 µM
same,TGI,[42],> 100 µM
same,TGI,[17],70.9 µM
same,TGI,[43],> 100 µM
same,TGI,[18],> 100 µM
same,TGI,[44],> 87 µM
same,TGI,[19],> 70.3 µM
same,TGI,[45],> 71.4 µM
same,TGI,[46],> 100 µM
same,TGI,[58],> 100 µM
same,TGI,[20],> 100 µM
same,TGI,[47],> 100 µM
same,TGI,[48],> 100 µM
same,TGI,[55],> 100 µM
same,TGI,[49],> 100 µM
same,TGI,[50],> 100 µM
same,TGI,[21],> 70.4 µM
same,TGI,[22],> 100 µM
same,TGI,[51],> 76.1 µM
same,TGI,[23],> 100 µM
same,TGI,[24],> 100 µM
same,TGI,[52],> 100 µM
same,TGI,[25],> 64.6 µM
same,TGI,[26],> 100 µM
same,TGI,[27],> 100 µM
same,TGI,[56],> 100 µM
same,TGI,[28],> 70.7 µM
same,TGI,[53],> 100 µM
same,TGI,[30],> 100 µM
same,TGI,[31],> 100 µM
same,TGI,[57],> 100 µM
same,TGI,[32],> 70.4 µM
same,TGI,[33],> 100 µM
